Measured values: patent US20260294949A1, “SUBSTITUTED BICYCLIC HETEROCYCLE COMPOUNDS, COMPOSITIONS, AND USES THEREOF” (Lakewood Amedex, Inc., priority 2023, published 2026)

How the values were obtained:
Format in all cases: cell-based
[1] = test system: Pseudomonas aeruginosa (6326); assay: MIC, broth microdilution (CLSI), Pseudomonas aeruginosa (6326); conditions: pH 4-5, 18 to 24 hours
Method: (§1) MIC testing is conducted using the broth (Mueller Hinton Broth) microdilution procedures relevant to each organism group as established by the Clinical and Laboratory Standards Institute (CLSI; 3-7). MIC plates are prepared in accordance with CLSI (3-7). To prepare the test plates, automated liquid handlers are used to conduct serial dilutions and liquid transfers. Automated liquid handlers utilized in this study include the Multidrop 384 (Labsystems, Helsinki, Finland) and the Biomek 2000 (Beckman Coulter, Fullerton CA). The solution is diluted to desired pH using 1 M Citric Acid or 1 M NaOH buffer. A standardized inoculum of each test organism is prepared per CLSI methods (3, 5-7) to equal a 0.5 McFarland standard in the appropriate media followed by an additional 1:20 dilution (1:10 for anaerobes).
(§2) The plates are then inoculated with 10 μL of the diluted 0.5 McFarland suspension using the Biomek 2000 from low to high drug concentration, resulting in a final concentration of approximately 5×10^5 CFU/mL per well. An un-inoculated plate is incubated for the purpose of assessing solubility of the drug in the test media. The plates are stacked 3 to 4 high, covered with a sterile lid on the top plate, and incubated for 18 to 24 hours according to CLSI. The MIC is recorded as the lowest concentration of respective compound that inhibited visible growth of the organism.

Escherichia coli (6258) = assay: MIC, broth microdilution (CLSI), Escherichia coli (6258); conditions: pH 4-5, 18 to 24 hours
Method: as §1, §2

[2] = test system: Pseudomonas aeruginosa (6328); assay: MIC, broth microdilution (CLSI), Pseudomonas aeruginosa (6328); conditions: pH 4-5, 18 to 24 hours
Method: as §1, §2

[3] = test system: Pseudomonas aeruginosa (0103); assay: MIC, broth microdilution (CLSI), Pseudomonas aeruginosa (0103); conditions: pH 4-5, 18 to 24 hours
Method: as §1, §2

Escherichia coli (0102) = assay: MIC, broth microdilution (CLSI), Escherichia coli (0102); conditions: pH 4-5, 18 to 24 hours
Method: as §1, §2

Escherichia coli (6098) = assay: MIC, broth microdilution (CLSI), Escherichia coli (6098); conditions: pH 4-5, 18 to 24 hours
Method: as §1, §2

Escherichia coli (6260) = assay: MIC, broth microdilution (CLSI), Escherichia coli (6260); conditions: pH 4-5, 18 to 24 hours
Method: as §1, §2

Escherichia coli (6259) = assay: MIC, broth microdilution (CLSI), Escherichia coli (6259); conditions: pH 4-5, 18 to 24 hours
Method: as §1, §2

[4] = test system: Pseudomonas aeruginosa (6160); assay: MIC, broth microdilution (CLSI), Pseudomonas aeruginosa (6160); conditions: pH 4-5, 18 to 24 hours
Method: as §1, §2

[5] = test system: Pseudomonas aeruginosa (6234); assay: MIC, broth microdilution (CLSI), Pseudomonas aeruginosa (6234); conditions: pH 4-5, 18 to 24 hours
Method: as §1, §2

[6] = test system: Pseudomonas aeruginosa (27853); assay: MIC, broth microdilution (CLSI), Pseudomonas aeruginosa (27853); conditions: pH 3, 18 to 24 hours
Method: as §1, §2

Candida albicans (22972) = assay: MIC, broth microdilution (CLSI), Candida albicans (22972); conditions: pH 3, 18 to 24 hours
Method: as §1, §2

[7] = test system: Staphylococcus aureus (43330); assay: MIC, broth microdilution (CLSI), Staphylococcus aureus (43330); conditions: pH 3, 18 to 24 hours
Method: as §1, §2

Escherichia coli (25922) = assay: MIC, broth microdilution (CLSI), Escherichia coli (25922); conditions: pH 3, 18 to 24 hours
Method: as §1, §2

Compound | MIC [1] | MIC (Escherichia coli (6258)) | MIC [2] | MIC [3] | MIC (Escherichia coli (0102)) | MIC (Escherichia coli (6098)) | MIC (Escherichia coli (6260)) | MIC (Escherichia coli (6259)) | MIC [4] | MIC [5] | MIC [6] | MIC (Candida albicans (22972)) | MIC [7] | MIC (Escherichia coli (25922))
CCCCOP(=O)(O)OC[C@H]1O[C@@H](n2cnc3c(=O)[nH]c(N)nc32)[C@H](OC)[C@@H]1O [R-8, ((2R,3R,4R,5R)-5-(2-amino-1,9-dihydro-6H-purin-6-one-9-yl)-4-methoxy-3-hydroxytetrahydrofuran-2-yl)-methyl butyl hydrogen phosphate] | 100 mg/mL | 100 mg/mL | 100 mg/mL | 100 mg/mL | 100 mg/mL | 100 mg/mL | 100 mg/mL | 100 mg/mL | 100 mg/mL | 50 mg/mL | – | – | – | –
CCCCOP(=O)(O)OC[C@H]1O[C@@H](n2ncc3c(N)ncnc32)C[C@@H]1O [LAI-018, ((2R, 3S, 5R)-5-(4-amino-1H-pyrazolo [3,4-d]pyrimidine-1-yl)-3-hydroxytetra hydrofuran-2-yl)methyl butyl hydrogen phosphate] | – | – | – | – | – | – | – | – | – | – | 25 mg/mL | 5 mg/mL | 25 mg/mL | 25 mg/mL
CCCCOP(=O)(O)OC[C@H]1O[C@@H](n2cnc3cnc(N)nc32)C[C@@H]1O [LAI-020, ((2R,3S,5R)-5-(2-amino-9H-purin-9-yl)-3-hydroxytetrahydrofuran-2-yl)-methyl butyl hydrogen phosphate] | – | – | – | – | – | – | – | – | – | – | 5 mg/mL | 25 mg/mL | 25 mg/mL | 25 mg/mL
CCCCOP(=O)(O)OC[C@H]1O[C@@H](n2cnc3c(=O)[nH]c(N)nc32)C[C@@H]1O [R-4, ((2R,3S,5R)-5-(2-amino-1,9-dihydro-6H-purin-6-one-9-yl)-3-hydroxytetrahydrofuran-2-yl)-methyl butyl hydrogen phosphate] | – | – | – | 25 mg/mL | 50 mg/mL | – | 100 mg/mL | – | 50 mg/mL | 25 mg/mL | – | – | – | –
CCCCOP(=O)(O)OC[C@H]1O[C@@H](n2cnc3c(N)ncnc32)C[C@@H]1O [LAI-017, ((2R,3S,5R)-5-(6-amino-9H-purin-9-yl)-3-hydroxytetrahydrofuran-2-yl)methyl butyl hydrogen phosphate] | – | – | – | – | – | – | – | – | – | – | 5 mg/mL | 5 mg/mL | 25 mg/mL | 25 mg/mL
